Source: PMC6886544

How the values were obtained:
[1] = system: A549 cells (KRAS mutant); test: CellTiter-Glo viability assay, A549; details: Homo sapiens, A549, 96 h, read-out: KRAS CTG EC50 A549
[2] = target: T1, EGFR-L858R/T790M (Homo sapiens, UniProt P00533, L858R/T790M); test: Kinetic characterization (Ki, kinact), EGFR-L858R/T790M
[3] = system: A431 cells (EGFR wild type); test: CellTiter-Glo viability assay, A431; details: Homo sapiens, A-431, 96 h, read-out: EGFR CTG EC50 A431, A431, 96 hours, CellTiter-Glo
[4] = target: T2, EGFR-wt (Homo sapiens, UniProt P00533); test: Kinetic characterization (Ki, kinact), EGFR-wt
[5] = target: T2, EGFR-wt; test: HTRF KinEASE-TK activity-based assay, EGFR-wt; details: EGFR HTRF IC50 wt, ATP at Km (9.5 µM), 30 min preincubation; mean ± SD of three independent measurements in duplicates
[6] = system: H358 cells (KRAS mutant); test: CellTiter-Glo viability assay, H358; type: cell-based; details: Homo sapiens, NCI-H358; H358, 96 hours, CellTiter-Glo; read-out: KRAS CTG EC50 H358;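 further: viable cell number estimated from ATP-dependent luminescence following exposure to serially diluted inhibitor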
[7] = target: T3, EGFR-L858R (Homo sapiens, UniProt P00533, L858R); test: Kinetic characterization (Ki, kinact), EGFR-L858R
[8] = target: T1, EGFR-L858R/T790M; test: HTRF KinEASE-TK activity-based assay, EGFR-L858R/T790M; details: EGFR HTRF IC50 L858R/T790M, ATP at Km (4 µM), 30 min preincubation; mean ± SD of three independent measurements in duplicates
[9] = Microsomal stability (phase I), mouse; type: in vitro ADME; details: mouse liver microsomes, up to 60 minutes, 37 °C
Protocol: Microsomal stability (phase I) assay.
Metabolic stability under oxidative conditions was measured in liver microsomes from different
time up to 50 minutes (HLM) or 60 minutes (MLM) at 37 °C. Based on the compound half-life t1/2,
the in vitro intrinsic clearance CLint was calculated. […]

[10] = system: H1975 cells (EGFR-L858R/T790M); test: CellTiter-Glo viability assay, H1975; details: Homo sapiens, NCI-H1975, 96 h, read-out: EGFR CTG EC50 H1975, H1975, 96 hours, CellTiter-Glo
[11] = system: HCC827 cells (EGFR-delE746_A750); test: CellTiter-Glo viability assay, HCC827; type: cell-based; details: Homo sapiens; HCC827, 96 hours, CellTiter-Glo; read-out: EGFR CTG EC50 HCC827;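 further: luminescence from ATP content as a measure of metabolically active cells, in RPMI with 10% FBS, compound added as serial dilutions after 24 h of preculture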
[12] = system: EGFR and downstream cascade phosphorylation in H1975 cells; test: Western blot analysis in H1975 cells; type: cell-based; details: 1 h inhibitor then EGF stimulation
Protocol: and incubated at 37 °C and 5% CO2. On day 2 cells were starved over night with media containing 0.5% FBS to be incubated on day 3 for 1 h with EGFR inhibitors following an additional 30 min of EGF stimulation at 50 ng/mL. The media was discarded and cells were washed once with DPBS
1x. Using 100 μL per well of lysis buffer, cells were then scraped off and lysed while rotating (Stuart Scientific, Staffordshire, UK) for 1 h at 4 °C. […] Supernatant was transferred into new tube and protein concentrations were determined with the Bio-Rad Protein Assay (Bio-Rad Laboratories, Hercules, CA). […]
captured and quantified using a FUJI LAS3000 system with Science Lab 2001 ImageGauge 4.0 software (Fujifilm Medial Systems, Stamford CT, USA). […]
glycerol, 1 mM TCEP, pH 8) on ice for 1 h. We analyzed the aliquots by ESI-MS using an Thermo Fisher Scientific Dionex UltiMate 3000 HPLC system connected to a Thermo Fisher Scientific Velos Pro (2d ion trap). Therefore, 5 μL of sample was injected and separated using a Vydac 214TP C4 5 μm column (150 mm x 2.1 mm) starting at 20% of solvent B for 5 minutes followed by a gradient up to 90% of solvent B over 14 min with a flow rate of 210 μL/min with 0.1% TFA in water as solvent A and 0.1% TFA in MeCN as solvent B. A mass range of 700 to 2000 m/z was scanned and raw data was deconvoluted and analyzed with MagTran software (Z.Q. Zhang, A.G. […]

[13] = target: T3, EGFR-L858R; test: HTRF KinEASE-TK activity-based assay, EGFR-L858R

T3 sequence (P00533 25-1210 L858R): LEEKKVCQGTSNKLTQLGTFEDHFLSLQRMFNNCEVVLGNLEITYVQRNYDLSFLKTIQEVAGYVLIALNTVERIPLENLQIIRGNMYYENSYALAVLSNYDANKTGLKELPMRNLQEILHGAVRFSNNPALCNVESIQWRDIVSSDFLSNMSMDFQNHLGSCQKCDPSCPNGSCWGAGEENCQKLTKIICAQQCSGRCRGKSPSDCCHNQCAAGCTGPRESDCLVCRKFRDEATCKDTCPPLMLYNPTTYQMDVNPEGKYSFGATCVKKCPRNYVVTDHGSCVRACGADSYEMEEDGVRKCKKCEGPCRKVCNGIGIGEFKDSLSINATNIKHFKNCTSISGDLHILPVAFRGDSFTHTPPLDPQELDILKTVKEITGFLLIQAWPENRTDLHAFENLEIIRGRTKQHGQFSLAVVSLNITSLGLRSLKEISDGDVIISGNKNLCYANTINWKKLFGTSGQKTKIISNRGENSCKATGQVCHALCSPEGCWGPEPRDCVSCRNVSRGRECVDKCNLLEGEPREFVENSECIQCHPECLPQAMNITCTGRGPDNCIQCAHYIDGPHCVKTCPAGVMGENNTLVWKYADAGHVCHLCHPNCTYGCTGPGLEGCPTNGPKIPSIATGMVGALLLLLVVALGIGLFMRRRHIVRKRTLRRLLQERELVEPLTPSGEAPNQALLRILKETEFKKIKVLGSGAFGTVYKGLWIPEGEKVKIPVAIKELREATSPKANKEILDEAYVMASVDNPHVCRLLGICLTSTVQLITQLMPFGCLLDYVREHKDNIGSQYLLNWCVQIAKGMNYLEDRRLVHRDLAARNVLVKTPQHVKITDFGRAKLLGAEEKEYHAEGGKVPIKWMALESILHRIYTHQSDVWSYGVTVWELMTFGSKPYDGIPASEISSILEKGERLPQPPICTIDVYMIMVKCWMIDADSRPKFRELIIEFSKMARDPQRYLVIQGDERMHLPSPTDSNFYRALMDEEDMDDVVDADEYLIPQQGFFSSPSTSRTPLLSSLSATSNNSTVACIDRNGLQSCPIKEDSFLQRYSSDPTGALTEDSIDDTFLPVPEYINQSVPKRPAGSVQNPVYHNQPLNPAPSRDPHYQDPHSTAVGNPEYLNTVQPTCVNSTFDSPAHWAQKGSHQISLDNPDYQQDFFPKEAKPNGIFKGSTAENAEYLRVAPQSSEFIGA
T2 sequence (P00533 25-1210): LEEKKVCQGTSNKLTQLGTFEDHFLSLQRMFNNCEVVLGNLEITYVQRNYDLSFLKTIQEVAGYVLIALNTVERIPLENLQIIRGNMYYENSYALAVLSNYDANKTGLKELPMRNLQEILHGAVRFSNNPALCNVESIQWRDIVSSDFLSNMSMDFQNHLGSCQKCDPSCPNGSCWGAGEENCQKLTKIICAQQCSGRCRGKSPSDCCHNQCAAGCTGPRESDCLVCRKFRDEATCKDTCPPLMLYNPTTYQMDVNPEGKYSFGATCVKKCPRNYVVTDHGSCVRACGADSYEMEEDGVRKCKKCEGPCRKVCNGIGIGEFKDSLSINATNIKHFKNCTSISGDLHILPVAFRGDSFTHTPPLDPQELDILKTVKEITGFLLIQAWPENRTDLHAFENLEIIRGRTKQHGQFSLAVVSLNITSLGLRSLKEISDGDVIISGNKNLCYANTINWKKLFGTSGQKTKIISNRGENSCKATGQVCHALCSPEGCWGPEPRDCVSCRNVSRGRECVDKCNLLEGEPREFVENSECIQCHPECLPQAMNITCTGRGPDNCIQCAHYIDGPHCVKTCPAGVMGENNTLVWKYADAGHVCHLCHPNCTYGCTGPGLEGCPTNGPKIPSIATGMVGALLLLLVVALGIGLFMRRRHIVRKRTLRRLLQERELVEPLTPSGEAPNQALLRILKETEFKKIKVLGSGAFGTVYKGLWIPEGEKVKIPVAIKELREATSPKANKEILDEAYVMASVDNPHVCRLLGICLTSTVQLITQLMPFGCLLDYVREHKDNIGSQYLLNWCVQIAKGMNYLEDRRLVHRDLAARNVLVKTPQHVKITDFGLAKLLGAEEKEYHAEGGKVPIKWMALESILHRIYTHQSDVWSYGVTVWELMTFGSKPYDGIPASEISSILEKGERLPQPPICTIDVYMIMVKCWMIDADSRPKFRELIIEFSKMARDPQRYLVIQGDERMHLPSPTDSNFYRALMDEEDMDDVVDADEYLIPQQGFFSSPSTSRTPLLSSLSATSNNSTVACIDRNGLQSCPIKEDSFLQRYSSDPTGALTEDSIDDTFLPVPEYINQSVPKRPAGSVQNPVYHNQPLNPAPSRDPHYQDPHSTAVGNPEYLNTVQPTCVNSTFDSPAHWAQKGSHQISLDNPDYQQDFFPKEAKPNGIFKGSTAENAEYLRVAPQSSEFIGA
T1 sequence (P00533 25-1210 T790M/L858R): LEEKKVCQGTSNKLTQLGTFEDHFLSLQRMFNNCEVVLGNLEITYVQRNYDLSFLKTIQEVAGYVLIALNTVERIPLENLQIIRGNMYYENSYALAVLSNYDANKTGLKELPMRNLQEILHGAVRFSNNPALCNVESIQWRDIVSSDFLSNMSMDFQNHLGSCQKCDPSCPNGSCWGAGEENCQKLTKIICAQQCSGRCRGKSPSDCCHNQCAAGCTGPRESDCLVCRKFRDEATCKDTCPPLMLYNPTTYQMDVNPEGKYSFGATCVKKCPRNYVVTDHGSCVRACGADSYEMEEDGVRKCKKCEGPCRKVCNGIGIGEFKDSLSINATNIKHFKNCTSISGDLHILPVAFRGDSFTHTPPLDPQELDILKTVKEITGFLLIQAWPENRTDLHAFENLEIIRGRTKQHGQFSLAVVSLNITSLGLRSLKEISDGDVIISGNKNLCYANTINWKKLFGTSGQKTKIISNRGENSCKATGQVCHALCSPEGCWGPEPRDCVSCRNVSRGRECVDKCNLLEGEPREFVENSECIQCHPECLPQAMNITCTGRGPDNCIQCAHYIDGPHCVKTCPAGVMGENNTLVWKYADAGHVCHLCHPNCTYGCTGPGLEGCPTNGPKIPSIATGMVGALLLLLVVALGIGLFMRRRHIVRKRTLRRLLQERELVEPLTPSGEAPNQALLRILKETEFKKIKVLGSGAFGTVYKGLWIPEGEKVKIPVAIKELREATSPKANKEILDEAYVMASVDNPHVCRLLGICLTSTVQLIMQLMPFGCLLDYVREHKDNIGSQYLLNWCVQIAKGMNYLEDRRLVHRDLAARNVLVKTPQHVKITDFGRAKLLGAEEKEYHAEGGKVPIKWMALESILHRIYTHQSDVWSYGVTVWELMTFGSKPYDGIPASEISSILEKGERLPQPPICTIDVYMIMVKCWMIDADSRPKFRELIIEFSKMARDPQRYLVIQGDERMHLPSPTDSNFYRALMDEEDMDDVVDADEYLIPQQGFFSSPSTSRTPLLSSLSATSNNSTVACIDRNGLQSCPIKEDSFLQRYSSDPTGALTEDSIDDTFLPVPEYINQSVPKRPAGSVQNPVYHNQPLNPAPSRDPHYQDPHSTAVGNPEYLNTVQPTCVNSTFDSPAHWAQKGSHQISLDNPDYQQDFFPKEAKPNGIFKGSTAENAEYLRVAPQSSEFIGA

EC50 [1]: 5.72 ± 0.24 µM
Ki [2]: 15 ± 3 nM
kinact [2]: 0.00433 s⁻¹
kinact/KI [2]: 300000 ± 90000 M⁻¹ s⁻¹
EC50 [3]: 1410 ± 917 nM
Ki [4]: 10 ± 1 nM
kinact [4]: 0.00167 s⁻¹
kinact/KI [4]: 160000 ± 60000 M⁻¹ s⁻¹
IC50 [5]: 1 ± 0.1 nM
EC50 [6]: 9.39 ± 3.38 µM
Ki [7]: 10 ± 1 nM
kinact [7]: 0.00317 s⁻¹
kinact/KI [7]: 310000 ± 110000 M⁻¹ s⁻¹
IC50 [8]: 1 ± 0.3 nM
microsomal CLint at 3 µM [9]: 8 µL/min/mg
EC50 [10]: 65 ± 11 nM
EC50 [11]: 67 ± 7 nM
IC50 [13]: 0.4 nM
SMILES: C=CC(=O)Nc1cccc(-c2c(-c3ccc(N4CCN(C)CC4)cc3)[nH]c3ncn(C(C)C)c(=O)c23)c1 [Compound 29g]
concentration at which phosphorylation of EGFR and downstream proteins was reduced/inhibited [12]: around 100 nM
